Source: PubChem BioAssay (NCI)
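Briefly, cells in 96-well plates were exposed to five compound concentrations for 48 h, and endpoints were estimated by linear interpolation. The concentration for full growth arrest is given as TGI.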

Columns and labels:
Experiment in all cases: DTP human tumour cell line panel, 48 h
786-0 renal = system: 786-0 renal
A498 renal = system: A498 renal
A549 NSCLC = system: A549 NSCLC
ACHN renal = system: ACHN renal
CAKI-1 renal = system: CAKI-1 renal
CCRF-CEM leukemia = system: CCRF-CEM leukemia
COLO 205 colon = system: COLO 205 colon
DLD-1 colon = system: DLD-1 colon
DMS 114 small cell lung = system: DMS 114 small cell lung
DMS 273 small cell lung = system: DMS 273 small cell lung
EKVX NSCLC = system: EKVX NSCLC
HCC-2998 colon = system: HCC-2998 colon
HCT-116 colon = system: HCT-116 colon
HCT-15 colon = system: HCT-15 colon
HL-60(TB) leukemia = system: HL-60(TB) leukemia
HOP-18 NSCLC = system: HOP-18 NSCLC
HOP-62 NSCLC = system: HOP-62 NSCLC
HOP-92 NSCLC = system: HOP-92 NSCLC
HT29 colon = system: HT29 colon
IGROV1 ovarian = system: IGROV1 ovarian
K-562 leukemia = system: K-562 leukemia
KM12 colon = system: KM12 colon
KM20L2 colon = system: KM20L2 colon
LOX IMVI melanoma = system: LOX IMVI melanoma
M14 melanoma = system: M14 melanoma
M19-MEL melanoma = system: M19-MEL melanoma
MALME-3M melanoma = system: MALME-3M melanoma
MOLT-4 leukemia = system: MOLT-4 leukemia
NCI-H226 lung = system: NCI-H226 lung
NCI-H23 lung = system: NCI-H23 lung
NCI-H460 lung = system: NCI-H460 lung
NCI-H522 lung = system: NCI-H522 lung
OVCAR-3 ovarian = system: OVCAR-3 ovarian
OVCAR-4 ovarian = system: OVCAR-4 ovarian
OVCAR-5 ovarian = system: OVCAR-5 ovarian
OVCAR-8 ovarian = system: OVCAR-8 ovarian
RPMI-8226 leukemia = system: RPMI-8226 leukemia
RXF 393 renal = system: RXF 393 renal
SF-268 CNS = system: SF-268 CNS
SF-295 CNS = system: SF-295 CNS
SF-539 CNS = system: SF-539 CNS
SK-MEL-2 melanoma = system: SK-MEL-2 melanoma
SK-MEL-28 melanoma = system: SK-MEL-28 melanoma
SK-MEL-5 melanoma = system: SK-MEL-5 melanoma
SK-OV-3 ovarian = system: SK-OV-3 ovarian
SN12C renal = system: SN12C renal
SNB-19 CNS = system: SNB-19 CNS
SNB-75 CNS = system: SNB-75 CNS
SR leukemia = system: SR leukemia
SW-620 colon = system: SW-620 colon
TK-10 renal = system: TK-10 renal
U251 CNS = system: U251 CNS
UACC-257 melanoma = system: UACC-257 melanoma
UACC-62 melanoma = system: UACC-62 melanoma
UO-31 renal = system: UO-31 renal
XF 498 CNS = system: XF 498 CNS
LXFL 529 NSCLC = system: LXFL 529 NSCLC
RXF-631 renal = system: RXF-631 renal
SNB-78 CNS = system: SNB-78 CNS

Measured: TGI

COP(=O)(OC)C(NC(=O)C(F)(F)F)(c1ccccc1)C(F)(F)F (stereo unspecified)
> 100 µM: 786-0 renal | A498 renal | A549 NSCLC | ACHN renal | CAKI-1 renal | CCRF-CEM leukemia | COLO 205 colon | DLD-1 colon | DMS 114 small cell lung | DMS 273 small cell lung | EKVX NSCLC | HCC-2998 colon | HCT-116 colon | HCT-15 colon | HL-60(TB) leukemia | HOP-18 NSCLC | HOP-62 NSCLC | HOP-92 NSCLC | HT29 colon | IGROV1 ovarian | K-562 leukemia | KM12 colon | KM20L2 colon | LOX IMVI melanoma | M14 melanoma | M19-MEL melanoma | MALME-3M melanoma | MOLT-4 leukemia | NCI-H226 lung | NCI-H23 lung | NCI-H460 lung | NCI-H522 lung | OVCAR-3 ovarian | OVCAR-4 ovarian | OVCAR-5 ovarian | OVCAR-8 ovarian | RPMI-8226 leukemia | RXF 393 renal | SF-268 CNS | SF-295 CNS | SF-539 CNS | SK-MEL-2 melanoma | SK-MEL-28 melanoma | SK-MEL-5 melanoma | SK-OV-3 ovarian | SN12C renal | SNB-19 CNS | SNB-75 CNS | SR leukemia | SW-620 colon | TK-10 renal | U251 CNS | UACC-257 melanoma | UACC-62 melanoma | UO-31 renal | XF 498 CNS

O=C(NCCO)c1ccc([N+](=O)[O-])cc1
> 100 µM: 786-0 renal | A498 renal | A549 NSCLC | CAKI-1 renal | CCRF-CEM leukemia | COLO 205 colon | DLD-1 colon | DMS 114 small cell lung | DMS 273 small cell lung | EKVX NSCLC | HCC-2998 colon | HCT-15 colon | HL-60(TB) leukemia | HOP-62 NSCLC | HT29 colon | IGROV1 ovarian | K-562 leukemia | KM12 colon | KM20L2 colon | LOX IMVI melanoma | LXFL 529 NSCLC | M14 melanoma | M19-MEL melanoma | MALME-3M melanoma | MOLT-4 leukemia | NCI-H226 lung | NCI-H23 lung | NCI-H460 lung | NCI-H522 lung | OVCAR-3 ovarian | OVCAR-8 ovarian | RPMI-8226 leukemia | RXF 393 renal | RXF-631 renal | SF-268 CNS | SF-295 CNS | SF-539 CNS | SK-MEL-2 melanoma | SK-MEL-28 melanoma | SK-MEL-5 melanoma | SK-OV-3 ovarian | SN12C renal | SNB-19 CNS | SNB-75 CNS | SNB-78 CNS | SW-620 colon | TK-10 renal | U251 CNS | UACC-257 melanoma | UACC-62 melanoma | UO-31 renal | XF 498 CNS

O=C(CSc1ncn[nH]1)C[P+](c1ccccc1)(c1ccccc1)c1ccccc1
43.2 µM: NCI-H522 lung
> 100 µM: 786-0 renal | A549 NSCLC | ACHN renal | CAKI-1 renal | CCRF-CEM leukemia | COLO 205 colon | DLD-1 colon | DMS 114 small cell lung | DMS 273 small cell lung | EKVX NSCLC | HCC-2998 colon | HCT-15 colon | HL-60(TB) leukemia | HOP-62 NSCLC | HOP-92 NSCLC | IGROV1 ovarian | K-562 leukemia | KM12 colon | KM20L2 colon | LOX IMVI melanoma | LXFL 529 NSCLC | M14 melanoma | M19-MEL melanoma | MALME-3M melanoma | MOLT-4 leukemia | NCI-H23 lung | NCI-H460 lung | OVCAR-3 ovarian | OVCAR-4 ovarian | OVCAR-5 ovarian | OVCAR-8 ovarian | RXF 393 renal | SF-268 CNS | SF-295 CNS | SF-539 CNS | SK-MEL-2 melanoma | SK-MEL-28 melanoma | SK-MEL-5 melanoma | SK-OV-3 ovarian | SN12C renal | SNB-19 CNS | SNB-75 CNS | SNB-78 CNS | SW-620 colon | TK-10 renal | UACC-257 melanoma | UACC-62 melanoma | UO-31 renal | XF 498 CNS

O=C(/C=C/c1ccco1)c1ccc(NCc2nc3ccccc3[nH]2)cc1
33.5 µM: CCRF-CEM leukemia
47.8 µM: OVCAR-8 ovarian
30.9 µM: M14 melanoma
30.2 µM: UACC-62 melanoma
29.8 µM: LOX IMVI melanoma
30.3 µM: HCT-15 colon
37.7 µM: SR leukemia
46.4 µM: SF-268 CNS
> 100 µM: NCI-H460 lung
38.3 µM: HT29 colon
27.3 µM: UO-31 renal
23.2 µM: UACC-257 melanoma
22.6 µM: KM12 colon
35.1 µM: KM20L2 colon
21.4 µM: NCI-H522 lung
44.5 µM: HOP-18 NSCLC
26.7 µM: COLO 205 colon
35.6 µM: HOP-62 NSCLC
39.1 µM: TK-10 renal
31.1 µM: OVCAR-3 ovarian | SF-295 CNS | SNB-75 CNS
38.4 µM: ACHN renal
43.3 µM: SK-OV-3 ovarian
31.5 µM: OVCAR-5 ovarian
28.5 µM: LXFL 529 NSCLC
32 µM: SN12C renal
27.7 µM: HCC-2998 colon
35.8 µM: DMS 273 small cell lung
13.8 µM: NCI-H226 lung
30.6 µM: HL-60(TB) leukemia | HOP-92 NSCLC | SNB-19 CNS
23.8 µM: U251 CNS
40.9 µM: K-562 leukemia
33.8 µM: SK-MEL-28 melanoma
56.6 µM: OVCAR-4 ovarian
31.9 µM: MOLT-4 leukemia
34.9 µM: SK-MEL-2 melanoma
34.3 µM: SW-620 colon
58.4 µM: SNB-78 CNS
34.1 µM: IGROV1 ovarian
28.6 µM: SK-MEL-5 melanoma
29.4 µM: M19-MEL melanoma
29.9 µM: EKVX NSCLC
49.9 µM: CAKI-1 renal
32.5 µM: 786-0 renal
32.4 µM: DLD-1 colon
33.2 µM: MALME-3M melanoma | SF-539 CNS
26 µM: DMS 114 small cell lung
27.5 µM: A498 renal | NCI-H23 lung
